Measured values: PMC5359770 (ACS chemical biology, 2016)
Blank lines part the entries; values can stand above or below the compound they belong to.

Tests used:
APT2 = APT2 (Homo sapiens, UniProt O95372); format: binding
[1] = cited from earlier work
[2] = target: APT2 triple mutant L78I/A85S/P86Q (Homo sapiens, UniProt O95372, A85S/L78I/P86Q); format: biochemical
APT2-L78I = APT2-L78I (Homo sapiens, UniProt O95372, L78I); details: ResOAc substrate
Sequence of APT2-L78I (O95372 whole entry L78I): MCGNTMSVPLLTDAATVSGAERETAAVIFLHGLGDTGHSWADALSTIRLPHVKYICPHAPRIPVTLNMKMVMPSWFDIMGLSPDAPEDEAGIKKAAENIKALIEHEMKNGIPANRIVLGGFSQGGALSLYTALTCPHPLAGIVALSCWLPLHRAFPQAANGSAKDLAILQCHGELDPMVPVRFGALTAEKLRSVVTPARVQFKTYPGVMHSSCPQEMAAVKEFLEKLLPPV

Sequence of APT2 (O95372 whole entry): as the sequence (O95372 whole entry L78I) above, with I78L counted along it
Sequence of APT2 triple mutant L78I/A85S/P86Q (O95372 whole entry L78I/A85S/P86Q): as the sequence (O95372 whole entry L78I) above, with A85S, P86Q counted along it

- IC50 (APT2): 9.9 ± 0.6 µM
Compound: CCCCCCCC/C=C\CCCCCCCC(=O)O [oleic acid]
- critical micelle concentration (CMC) [1]: 6 µM

Compound: COc1ccc(N2CCN(C(=O)c3cc4c(s3)-c3ccccc3[S+]([O-])C4)CC2)cc1 (stereo not drawn) [ML349-sulfoxide]
- binding / inhibition of APT2 (in words) (APT2): some residual inhibition

Compound: CCCCCCCC/C=C\CCCCCCCC(=O)OC[C@@H](O)COP(=O)([O-])OCC[N+](C)(C)C [1-oleoyl-2-hydroxy-sn-glycero-3-phosphocholine]
- IC50 (APT2): 4.3 ± 0.4 µM

- potency (in words) [2]: improved ML348 potency
- Ki (APT2-L78I): 5.8 µM
Compound: ML348
